Patent US7109193B2, “Tricyclic diazepines tocolytic oxytocin receptor antagonists” (Wyeth, priority 2001, dated 2006)

Each compound was assayed against T1, human oxytocin receptor (Homo sapiens, UniProt P30559) (assay: Oxytocin binding in Chinese Hamster Ovary cell membranes expressing human oxytocin receptors). Conditions: 100 nM, CHO cell membranes, [3H]oxytocin, values without parentheses.
T1 construct: host or cells: CHO cells (pcDNA3.1 vector)
T1 sequence (P30559 1-389): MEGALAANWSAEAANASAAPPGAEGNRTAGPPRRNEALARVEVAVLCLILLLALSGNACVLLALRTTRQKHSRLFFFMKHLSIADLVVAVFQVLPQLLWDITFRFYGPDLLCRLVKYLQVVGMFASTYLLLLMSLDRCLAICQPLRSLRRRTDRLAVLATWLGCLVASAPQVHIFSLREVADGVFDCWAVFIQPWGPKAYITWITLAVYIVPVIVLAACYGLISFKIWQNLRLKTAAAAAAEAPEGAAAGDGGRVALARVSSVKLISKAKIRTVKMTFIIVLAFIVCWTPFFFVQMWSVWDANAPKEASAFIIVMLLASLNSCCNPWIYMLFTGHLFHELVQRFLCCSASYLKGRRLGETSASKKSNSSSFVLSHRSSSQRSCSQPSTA
Procedure: Oxytocin Binding in Chinese Hamster Ovary Cell Membranes Expressing Human Oxytocin Receptors
The trypsin is removed by aspiration and the cells dislodged by tapping. Cell Culture medium (e.g. 30 mL for 1:30 split) is immediately added and mixed well to inactivate trypsin. 1 mL of detached cells is added to new culture flasks containing fresh Cell Culture medium (e.g. into 25 mL per T-150 flask), and mixed gently. The cells are incubated at 37° C. in 5% CO2. The medium is changed at 3 to 4 days interval (or as appropriate). […] All steps are done under sterile conditions. B. Membrane Preparation: The cells are washed twice gently with Hank's Balanced Salt solution (e.g., use 10 mL per T-150 flask). […] The contents are transferred to centrifuge tubes (50 mL size) kept in ice bath. All subsequent steps are done at 4° C. The tubes are centrifuged at 300×g for 15 min (1380 rpm on SORVAL, Model RT6000D, using rotor for 50 mL tubes). The supernatant is discarded and the cells suspended in homogenizing buffer (10 mM Tris-HCl containing 0.25 M sucrose and 1 mM EDTA, pH 7.4) ensuring that the volume of the buffer is about ten times the volume of the cell pellet. The cells are pooled into a centrifuge tube (50 mL) and homogenized with a Polytron at setting 6 for 10 sec. The homogenate is transferred into a Potter-Elvjehm homogenizer and homogenized with 3 strokes. The homogenate is centrifuged at 1500×g for 10 min at 4° C. (3100 rpm using SORVAL, model RT6000D, using rotor for 50 mL tubes). The pellet is discarded. The supernatant is centrifuged at 100,000×g for 60 min. at 4° C. (Beckman L8-80M ultracentrifuge; spin at 37,500 rpm with rotor type 70 Ti for 50 mL tubes; 38,000 rpm with type 80Ti for 15 mL tubes; or 35,800 rpm with rotor type 45Ti). The supernantant is discarded and the pellet suspended in 3 to 4 mL of Tris buffer (50 mM TRIS-HCl, pH 7.4). The protein content is estimated by the Bradford or Lowry method. The volume of the membrane suspension is adjusted with the membrane buffer (50 mM Tris-HCl containing 0.1% BSA and 0.1 mM PMSF) to give 3.0 mg/mL (or as appropriate) of protein. The membranes are aliquoted and stored at −70° C. C. Radioligand Binding Assay: In wells of a 96-well format microtiter plate, is added 90, 110 or 130 μL (to make up a final volume of 200 μL) of assay buffer containing 50 mM of Tris-HCl (pH 7.4), […], 1 mg % aprotinin, 1 mg % leupeptin, 2 mg % 1,10-phenanthroline, 10 mg % trypsin inhibitor, and 0.1 mM PMSF. The inhibitors are added on the day of the experiment. The components are mixed at room temperature, and then kept in ice bath following adjustment of the pH to 7.4. […] For oxytocin and other peptide ligands, 20 μL of 50% DMSO is added and the assay buffer volume is adjusted accordingly. To each well is added 50 μL of frozen membrane suspension thawed immediately prior to use and diluted in assay buffer to the required concentration (equivalent to 25 to 50 μg of protein/well as needed). 20 μL of 8 nM [^3H]oxytocin in the assay buffer, prepared just before use is added and incubated at room temperature for 60 min. shaking the plate on a mechanical shaker for the first 15 min. The incubation is stopped by rapid filtration of the plate contents followed by washing with ice-cold buffer (50 mM Tris-HCl, pH 7.4) using a cell harvester (Tomtek and Printed filtermat-B filter paper). The filter paper is thoroughly dried (7–12 min. in a microwave oven) and impregnated with MeltiLex B/H melt-on scintillation wax sheets and the radioactivity counted in a betaplate scintillation counter.
Binding data is either reported as percent inhibition at a certain concentration or if an IC50 was calculated, as a nanomolar concentration.
`Cc1cccc(N2CCN(C(=O)c3ccc4n3Cc3ccccc3N(C(=O)c3ccc(-c5ccccc5C(F)(F)F)c(C)c3)C4)CC2C)c1` (centres unmarked) [Example 5, [3-Methyl-4-(3-methyl-phenyl)-piperazin-1-yl]-[10-(2-methyl-2′-trifluoromethyl-[1,1′-biphenyl]-4-yl)carbonyl]-10,11-dihydro-5H-pyrrolo[2,1-c][1,4]benzodiazepin-3-yl-methanone] was tested, and the “OT % inhibition @ 100% nM” value was 24%.
For `COc1cc2c(cc1OC)N(C(=O)c1ccc(-c3ccccc3C(F)(F)F)c(C)c1)Cc1ccc(C(=O)N(C)CCCN(C)C)n1C2.Cl` [Example 13, N-Methyl-[N-(3-dimethylamino)propyl]-7,8-dimethoxy-10-{[2-methyl-2′-(trifluoromethyl)[1,1′-biphenyl]-4-yl]carbonyl}-10,11-dihydro-5H-pyrrolo[2,1-c][1,4]benzodiazepine-3-carboxamide hydrochloride salt], the “OT % inhibition @ 100% nM” value was 33%.
With `COc1cc2c(cc1OC)N(C(=O)c1ccc(-c3ccccc3C(F)(F)F)c(C)c1)Cc1ccc(C(=O)N3CCC(=O)CC3)n1C2` [Example 14, 7,8-Dimethoxy-10-{[2-methyl-2′-(trifluoromethyl)-[1,1′-biphenyl]-4-yl]carbonyl}-[(10,11-dihydro-5H-pyrrolo[2,1-c][1,4]benzodiazepin-3-yl)carbonyl]-4-piperidinone] the “OT % inhibition @ 100% nM” value was 9%.
For `COC(=O)c1ccc2c(c1)N(C(=O)c1ccc(-c3ccccc3C(F)(F)F)c(C)c1)Cc1cccn1C2` [Example 26, Methyl 10-{[2-methyl-2′-trifluoromethyl-[1,1′-biphenyl]-4-yl]carbonyl}-10,11-dihydro-5H-pyrrolo[2,1-c][1.4]benzodiazepine-8-carboxylate], the “OT % inhibition @ 100% nM” value was 17%.
In the case of `COc1cc(C(=O)N2Cc3ccc(C(=O)N4CCC[C@H]4CN4CCCC4)n3Cc3ccccc32)ccc1-c1ccccc1Cl` [Example 33, {[10-(2-Methoxy)-2′-chloro-[1,1′-biphenyl]-4-yl]carbonyl}-[(2S)-[(2-pyrrolidin-1-yl)methyl]pyrrolidin-1-yl]-10,11-dihydro-5H-pyrrolo[2,1-c][1,4]benzodiazepin-3-yl-methanone], the “OT % inhibition @ 100% nM” value is reported as 101%.
In the case of `Cc1cc(C(=O)N2Cc3ccc(C(=O)NCCCN(C)C)n3Cc3ccccc32)ccc1-c1ccccc1C(F)(F)F` [Example 84, N-[3-(Dimethylamino)propyl]-10-{[2-methyl-2′-(trifluoromethyl)[1,1′-biphenyl]-4-yl]carbonyl}-10,11-dihydro-5H-pyrrolo[2,1-c][1 .4]benzodiazepine-3-carboxamide], the “OT % inhibition @ 100% nM” value is reported as 48%.

Same assay, conditions: 100 nM, CHO cell membranes, [3H]oxytocin, values without parentheses, read-out: OT % inhibition @ 100% nM
For `Cc1cc(C(=O)N2Cc3ccc(C(=O)N(CCCN(C)C)CCCN(C)C)n3Cc3ccccc32)ccc1-c1ccccc1C(F)(F)F` [Example 3, 10-[(2-Methyl-2′-trifluoromethyl-[1,1′-biphenyl]-4-yl)-carbonyl]-10,11-dihydro-5H-pyrrolo[2,1-c][1,4]benzodiazepine-3-carboxylic acid bis-(3-dimethylamino-propyl)-amide], the inhibition at 0.1 µM was 37%.
Work on `COc1ccccc1-c1ccc(C(=O)N2Cc3ccc(C(=O)N(C)CCCN(C)C)n3Cc3ccccc32)cc1OC` [Example 107, 10-[(2,2′-Dimethoxy[1,1′-biphenyl]-4-yl)carbonyl]-N-[3-(dimethylamino)propyl]-N-methyl-10,11-dihydro-5H-pyrrolo[2,1-c][1,4]benzodiazepine-3-carboxamide] yielded an inhibition at 0.1 µM of 87%.
`COc1cccc(-c2ccc(C(=O)N3Cc4ccc(C(=O)N(C)CCCN(C)C)n4Cc4ccccc43)cc2OC)c1` [Example 108, 10-[(2,3′-Dimethoxy[1,1′-biphenyl]-4-yl)carbonyl]-N-[3-(dimethylamino)propyl]-N-methyl-10,11-dihydro-5H-pyrrolo[2,1-c][1,4]benzodiazepine-3-carboxamide] showed an inhibition at 0.1 µM of 96%.
In the case of `CN(C)CCCN(C)C(=O)c1ccc2n1Cc1ccccc1N(C(=O)c1ccc(-c3cccc4ccccc34)cc1Cl)C2` [Example 109, 10-[2-Chloro-4-(1-naphthyl)benzoyl]-N-[3-(dimethylamino)propyl]-N-methyl-10,11-dihydro-5H-pyrrolo[2,1-c][1,4]benzodiazepine-3-carboxamide], the inhibition at 0.1 µM is reported as 49%.
For `COc1ccccc1-c1ccc(C(=O)N2Cc3ccc(C(=O)N4CCC(N5CCCCC5)CC4)n3Cc3ccccc32)cc1C` [Example 112, {10-[(2-Methyl-2′-methoxy[1,1′-biphenyl]-4-yl)carbonyl]-10,11-dihydro-5H-pyrrolo[2,1-c][1,4]benzodiazepin-3-yl}[4-(1-piperidinyl)-1-piperidinyl]methanone], the inhibition at 0.1 µM was 89%.
Compound `Cc1ccccc1-c1ccc(C(=O)N2Cc3ccc(C(=O)N4CCC(N5CCCCC5)CC4)n3Cc3ccccc32)cc1C` [Example 113, {10-[(2-Methyl-2′-methyl[1,1′-biphenyl]-4-yl)carbonyl]-10,11-dihydro-5H-pyrrolo[2,1-c][1,4]benzodiazepin-3-yl}[4-(1-piperidinyl)-1-piperidinyl]methanone] has an inhibition at 0.1 µM of 97%.
`COc1cccc(-c2ccc(C(=O)N3Cc4ccc(C(=O)N5CCC(N6CCCCC6)CC5)n4Cc4ccccc43)cc2C)c1` [Example 114, {10-[(2-Methyl-3′-methoxy[1,1′-biphenyl]-4-yl)carbonyl]-10,11-dihydro-5H-pyrrolo[2,1-c][1,4]benzodiazepin-3-yl}[4-(1-piperidinyl)-1-piperidinyl]methanone] gave an inhibition at 0.1 µM of 76%.
In the case of `Cc1ccccc1-c1ccc(C(=O)N2Cc3ccc(C(=O)N4CCC(N5CCCCC5)CC4)n3Cc3ccccc32)cc1` [Example 115, {10-[(2′-Methyl[1,1′-biphenyl]-4-yl)carbonyl]-10,11-dihydro-5H-pyrrolo[2,1-c][1,4]benzodiazepin-3-yl}[4-(1-piperidinyl)-1-piperidinyl]methanone], the inhibition at 0.1 µM is reported as 25%.
`COc1cc(C(=O)N2Cc3ccc(C(=O)N4CCC(N5CCCCC5)CC4)n3Cc3ccccc32)ccc1-c1ccccc1C` [Example 116, {10-[(2-Methoxy-2′-methyl[1,1′-biphenyl]-4-yl)carbonyl]-10,11-dihydro-5H-pyrrolo[2,1-c][1,4]benzodiazepin-3-yl}[4-(1-piperidinyl)-1-piperidinyl]methanone] showed an inhibition at 0.1 µM of 84%.
Compound `COc1cccc(-c2cc(OC)c(C(=O)N3Cc4ccc(C(=O)N5CCC(N6CCCCC6)CC5)n4Cc4ccccc43)cc2Cl)c1` [Example 117, {10-[(6-Chloro-3-methoxy-3′-methoxy[1,1′-biphenyl]-4-yl)carbonyl]-10,11-dihydro-5H-pyrrolo[2,1-c][1,4]benzodiazepin-3-yl}[4-(1-piperidinyl)-1-piperidinyl]methanone] has an inhibition at 0.1 µM of 70%.
`COc1cc(C(=O)N2Cc3ccc(C(=O)N4CCC(N5CCCCC5)CC4)n3Cc3ccccc32)ccc1-c1cccc2ccccc12` [Example 118, {10-[3-Methoxy-4-(1-naphthyl)-benzoyl]-10,11-dihydro-5H-pyrrolo[2,1-c][1,4]benzodiazepin-3-yl}[4-(1-piperidinyl)-1-piperidinyl]methanone] showed an inhibition at 0.1 µM of 54%.
